In patent publication US8022036B2, “Use of thymosin alpha 1 for the treatment of immunological diseases” (Sigma-Tau Industrie Farmaceutiche Riunite S.p.A., priority 2006, dated 2011):
No end group written: not given here.

Experiments:
[1] = tested on: CD4+ T cell clones; test: Aspergillus-specific or alloreactive human T cell clones responding to DCs; type: cell-based; settings: healthy donors or transplanted patients
Description: Aspergillus-specific human CD4+ T cell clones were generated from peripheral blood CD4+CD45RA+ T cells added at limiting dilution concentrations to irradiated (20 Gy) feeder autologous peripheral blood cells and stimulated with conidia-pulsed DCs or allogeneic DCs (Blood. 2005; 106:4397-4406). Growing clones were assessed for specificity against fungus-pulsed DCs, allogeneic DCs, autologous irradiated cells (as a negative control) and 0.5% phytohemoagglutinin (as a positive control) by H^3-thymidine (Amersham Biosciences, Little Chalfont, UK) labeling or cytokine content in supernatants 2 days later (Blood. 2005; 106:4397-4406).
(E) Frequency of Aspergillus-specific or alloreactive T cell clones responding to the different types of fungus-pulsed DCs or unpulsed DCs, respectively, from healthy donors or transplanted patients. Growing clones were assessed for specificity after 2 days of stimulation with DCs. (*) p<0.05, GM-DCs versus peripheral blood cells (−). (**) P<0.05, HSCT-DCs versus all other DCs. nd, not done.

[2] = tested on: IDO; test: IDO expression (immunoblotting) and kynurenine production in DCs; type: cell-based, mouse
Description: IDO expression and functional activity were assessed as described in Nat. Immunol. […] Generation, purification and activity of T reg cells Splenic CD4+ T-cells were cocultured with conidia-pulsed DCs for 5 days […] before flow cytometry or ELISPOT assay. 1-MT (Sigma-Aldrich) was used at […].
Cells were assessed for IDO protein expression by immunoblotting and for kynurenine production. Positive and negative controls consisted of IDO protein-expressing MC24 transfectants and mock-transfected MC22 cells, respectively (not shown in the figure).

[3] = tested on: GM-DCs or FL-DCs; test: Cytokine production (ELISA) by murine GM-DCs or FL-DCs with Aspergillus conidia; type: cell-based, mouse
From the text: GM-DCs or FL-DCs were obtained from purified CD14+ monocytes from healthy donors or transplanted patients (1 month post-HSCT) cultured in Iscove's modified medium for 7-9 days, in the presence of rGM-CSF (Schering-Plough, Milan, Italy) and rIL-4 (Peprotech, Inalco, Milan, Italy) or FLT3-L (Immunex Corporation, Seattle, Wash.) (Blood. 2004; 103:4232-4239). DC recovery was between 20-30% reduced in cultures from transplanted patients. Murine GM-DCs or FL-DCs were obtained from bone marrow cells for 7-9 days, as described (Blood. 2004; 103:4232-4239). Thymosin alpha 1 and sThymosin alpha 1 were added to the cultures at 20 ng/mL. DCs (>99% CD11c+ consisting of 90-95% CD8-, 5-10% CD8+, and 1-5% B220+ cells) were purified from spleens (spDCs) by magnetic-activated sorting using CD11c MicroBeads and MidiMacs (Miltenyi Biotech). DC populations were further separated into CD8−, CD8+ and B220+ fractions by means of CD8 or B220 MicroBeads (Miltenyi Biotech). DCs were pulsed in serum-free Iscove medium for 24 hours with live unopsonized Aspergillus conidia or Zymosan from Saccharomyces cerevisiae (Sigma) or CpG-ODN 2006 as described.7 Phagocytosis was done as described (Blood. 2004; 103:4232-4239). Photographs were taken using a high Resolution Microscopy Color Camera AxioCam, using the AxioVision Software Rel. 3.1 (Carl Zeiss, Milan, Italy).
Cytokine content was assessed by enzyme-linked immunosorbent assays (Endogen Human Elisa Kits, R&D Systems and Euroclone, Milan, Italy). AID EliSpot assay kits (Amplimedical, Buttigliera Alta, Turin, Italy) were used on purified splenic CD4+ Tcells cocultured with conidia-pulsed DCs for 5 days to enumerate cytokine-producing cells (Blood. 2003; 102:3807-3814). 1-MT was used at 2 μM.
(B) Cytokine production (ELISA) by GM-DCs or FL-DCs cultured in serum-free medium (1×10^6 cells/mL) with unopsonized Aspergillus conidia (5×10^5/mL) for 24 hours. The IDO inhibitor 1-MT was added at 2 μM. Data are aggregated results from three independent experiments. The detection limits (pg/mL) of the assays were <16 for IL-12p70 and <12 for IL-10.

[4] = GVHD in experimental HSCT with donor T cells and DCs; type: in vivo, mouse; settings: 10^5 donor T cells plus Thymosin alpha 1-treated GM-DCs, uninfected mice
Description: Human peripheral blood mononuclear cells were obtained from healthy donors and seven recipients of T-cell depleted haploidentical HSCT, upon written informed consent. Donor typing, engraftment and GVHD were assessed as described (Blood. 2005; 106; 4397-4406). Experimental HSCT model Lethally irradiated (8 Gy) C57BL6 mice were infused with T cell-depleted bone marrow cells from BALB/c mice (Blood. 2003; 102:3807-3814). For GVHD, purified donor CD3+ T splenocytes were added to the graft (Science. 2002; 295:2097-2100). Individual mice were graded weekly from 0-2 for each GVHD criterion (see legend to FIG. 3) without knowledge of treatment group.
Mice were either left uninfected for the assessment of GVHD or infected for the assessment of susceptibility to infection. […]
Resistance to infection was assessed in terms of MST (median survival time in days) and fungal growth in the lung ([…] glucosamine content, bars indicating standard errors) 3 days after infection or at the time of death (A). […] The degree of systemic GVHD was assessed by a scoring system that sums changes in five clinical parameters: weight loss, posture (hunching), activity, fur texture, and skin integrity (maximum index=10). […]

[5] = in response to Aspergillus conidia, 24 hours

Thymosin alpha 1: naturally occurring thymic peptide; supplied as purified, endotoxin-free sterile lyophilized acetylated polypeptide from SciClone Pharmaceuticals (Ac-SDAAVDTSSEITTKDLKEKKEVVEEAEN; UniProt P06454 2-29, looked up)
ability of DCs to activate fungus- or alloantigen-specific T cell reactivity [1]: modified neither the antigen-specific T cell responses induced by DCs nor the allostimulatory capacity
induction of IDO protein and function in DCs from TLR9-/- or IFN-aβR-/- mice ([2]; DCs from knockout mice): not observed
induction of functional IDO (protein, tryptophan to kynurenine conversion) ([2]; FL-DCs and GM-DCs): Induction of functional IDO by Thymosin alpha 1 in both FL-DCs and GM-DCs was confirmed
IL-10 production by cells from TLR9-/- or IFN-aβR-/- mice ([3]; GM-DCs or FL-DCs, in response to Thymosin alpha 1): did not occur
release of IL-10 and IL-12 by FL-DCs [3, 5]: IL-10, more than IL-12
release of IL-12 and IL-10 by GM-DCs [3, 5]: induced release of IL-12 and IL-10
acceleration of GVHD induction by GM-DCs [4]: totally prevented the effect
